Laboratory results taken from paper PMC11077529, “All-photonic kinase inhibitors: light-controlled release-and-report inhibition” (Chemical Science, 2024).

Target: lymphocyte-specific protein tyrosine kinase (LCK) (Homo sapiens, UniProt P06239)
Assay: ADP-Glo kinase assay; also fluorescence increase at […] nm on binding LCK after decaging of 3e, reversed by TC-S7003
Type: biochemical

lymphocyte-specific protein tyrosine kinase (LCK), sequence (P06239 2-509): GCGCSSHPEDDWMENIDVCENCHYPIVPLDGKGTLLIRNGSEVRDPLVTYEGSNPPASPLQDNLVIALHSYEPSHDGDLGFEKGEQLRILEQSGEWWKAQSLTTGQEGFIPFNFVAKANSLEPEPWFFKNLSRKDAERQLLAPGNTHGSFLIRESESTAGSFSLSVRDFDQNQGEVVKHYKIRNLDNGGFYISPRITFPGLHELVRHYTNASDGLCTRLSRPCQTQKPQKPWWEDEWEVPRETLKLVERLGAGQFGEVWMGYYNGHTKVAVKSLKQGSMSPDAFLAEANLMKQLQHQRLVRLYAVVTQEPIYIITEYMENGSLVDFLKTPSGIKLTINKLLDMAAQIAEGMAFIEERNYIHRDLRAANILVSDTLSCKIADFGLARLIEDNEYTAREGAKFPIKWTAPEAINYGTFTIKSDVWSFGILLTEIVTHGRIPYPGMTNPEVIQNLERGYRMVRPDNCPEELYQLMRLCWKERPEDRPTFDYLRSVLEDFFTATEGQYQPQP

In the case of CC(C)n1nc(C#Cc2ccc3cc(N(C)C)ccc3c2)c2c(N)ncnc21 [compound 1, LCK inhibitor 1], the IC50 is reported as 2400 nM.
